Test results: PMC4556614 (PLoS ONE, 2015)

Experiments:
[1] = target: T1, OCT2 (Homo sapiens, UniProt O15244); test: in vitro; conditions: human; for % Inhibition of OCT2-dependent MF uptake at 20 µM (mean ± SEM) / % Inhibition of OCT2-dependent MF uptake at 200 µM (mean ± SEM): pH 7.3; for inhibition at 3 min, 20 µM / inhibition at 3 min, 200 µM: pH 7.3, probe [14C]metformin, 1000 µM, metformin 1000 μM, net uptake HEK-OCT2 minus HEK-VC; for inhibition at 3 min, 20 µM: % Inhibition of OCT2-dependent MF uptake at 20 µM (mean ± SEM), test drug 20 µM; for inhibition at 3 min, 200 µM: % Inhibition of OCT2-dependent MF uptake at 200 µM (mean ± SEM), test drug 200 µM
Method: (§1) For the transport assays HEK cell lines stably transfected with human OCT2 (HEK-OCT2) or the vector only (HEK-VC) were used. The HEK-OCT2 cell line was established and characterized previously. HEK-OCT2 and HEK-VC cells were seeded in poly-D-lysine (Sigma Aldrich, Taufkirchen, Germany) coated 48-well-plates at a density of 1.2 x 10^5 cells/well. […] Uptake was stopped by washing the cells three times with ice-cold uptake buffer. Afterwards, cells were lysed with 5 mM Tris buffer (pH 7.3) containing 0.1% Triton X-100. The intracellular accumulation of radioactivity was determined by liquid scintillation counting (PerkinElmer, Rodgau-Jügesheim, Germany) and protein concentration of each lysate was measured with bicinchonic acid assay (BCA Protein Assay Kit, Thermo Fisher Scientific, Waltham, MA, USA). We performed two to eight experiments each on at least two separate days, i.e., n = 4–16.
Experimental half-maximal inhibitory concentrations (IC50 values) were measured as the substrate uptake in the presence of increasing concentrations of test drugs. These experiments were performed as described above (three experiments each on two separate days, i.e., n = 6). IC50 values were calculated with GraphPad Prism 5.0 (GraphPad Software, San Diego, CA, USA). IC50 was estimated by a sigmoidal inhibition model and was fit to the equation V = V 0 / (1 + (I / IC50 ) ^n ) by nonlinear regression. V is the net uptake in the presence of the inhibitor, V 0 is the net uptake in the absence of the inhibitor, I is the concentration of the inhibitor and n is the slope.

[2] = target: T1, OCT2; test: Inhibition of OCT2-mediated [3H]MPP+ uptake in HEK-OCT2 cells; conditions: for inhibition at 3 min, 20 µM / inhibition at 3 min, 200 µM: pH 7.3, probe [3H]MPP+, 50 µM
Method: as §1

[3] = test drug 20 µM, MPP+ 50 μM, 3 min, net uptake HEK-OCT2 minus HEK-VC
[4] = test drug 200 µM, MPP+ 50 μM, 3 min, net uptake HEK-OCT2 minus HEK-VC

T1 sequence (O15244 whole entry): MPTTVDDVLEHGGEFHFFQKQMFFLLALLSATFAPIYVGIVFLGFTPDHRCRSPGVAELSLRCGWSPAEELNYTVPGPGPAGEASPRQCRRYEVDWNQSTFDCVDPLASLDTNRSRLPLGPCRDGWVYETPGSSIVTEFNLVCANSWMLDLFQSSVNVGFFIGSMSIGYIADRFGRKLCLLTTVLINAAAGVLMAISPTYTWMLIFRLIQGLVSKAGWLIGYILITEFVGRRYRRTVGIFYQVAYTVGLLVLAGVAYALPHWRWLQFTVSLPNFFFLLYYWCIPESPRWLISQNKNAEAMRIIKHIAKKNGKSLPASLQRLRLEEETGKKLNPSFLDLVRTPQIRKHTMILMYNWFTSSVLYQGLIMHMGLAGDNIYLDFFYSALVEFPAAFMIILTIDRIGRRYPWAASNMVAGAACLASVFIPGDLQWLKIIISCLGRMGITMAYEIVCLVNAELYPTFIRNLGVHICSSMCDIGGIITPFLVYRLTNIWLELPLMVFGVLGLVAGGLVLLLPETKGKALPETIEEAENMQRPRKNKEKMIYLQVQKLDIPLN

Row | SMILES | % Inhibition of OCT2-dependent MF uptake at 20 µM (mean ± SEM) [1] | % Inhibition of OCT2-dependent MF uptake at 200 µM (mean ± SEM) [1] | % Inhibition of OCT2-dependent MPP+ uptake at 20 µM (mean ± SEM) [2, 3] [%] | % Inhibition of OCT2-dependent MPP+ uptake at 200 µM (mean ± SEM) [2, 4] [%] | % Inhibition of OCT2-dependent MPP+ uptake at 20 µM (mean ± SEM) ([2]; human, pH 7.3) | % Inhibition of OCT2-dependent MPP+ uptake at 200 µM (mean ± SEM) ([2]; human, pH 7.3) | inhibition at 3 min, 20 µM [1] [%] | inhibition at 3 min, 200 µM [1] [%] | inhibition at 3 min, 20 µM ([2]; human) [%] | inhibition at 3 min, 200 µM ([2]; human) [%]
1 | CCOC(=O)[C@H](CCc1ccccc1)N[C@@H](C)C(=O)N1CCC[C@H]1C(=O)O [Enalapril] | 7.5 ± 2.3 | 34.2 ± 4.5 | 7.1 ± 7.4 | 20.2 ± 5.6 | – | – | – | – | – | –
2 | COc1cccc(C2(O)CCCCC2CN(C)C)c1 (stereo not shown) [Tramadol] | 47.1 ± 9.5 | 103.7 ± 9.2 | – | – | 5.9 ± 7.9 | 31.4 ± 1.4 | – | – | – | –
3 | CN1CCN2c3ncccc3Cc3ccccc3C2C1 (stereo not shown) [Mirtazapine] | 73.3 ± 3.0 | 90.7 ± 3.9 | -4.8 ± 4.0 | 57.6 ± 6.1 | – | – | – | – | – | –
4 | CCC(C)(C)C(=O)O[C@H]1C[C@@H](C)C=C2C=C[C@H](C)[C@H](CC[C@@H]3C[C@@H](O)CC(=O)O3)[C@H]21 [Simvastatin lactone] | -15.4 ± 5.5 | 57.6 ± 10.0 | 48.5 ± 9.0 | 53.8 ± 13.1 | – | – | – | – | – | –
5 | COCCc1ccc(OCC(O)CNC(C)C)cc1 (stereo not shown) [Metoprolol] | 50.5 ± 5.9 | 88.2 ± 1.7 | 23.2 ± 6.5 | 27.5 ± 6.9 | – | – | – | – | – | –
6 | COc1cc2nc(N3CCN(C(=O)C4COc5ccccc5O4)CC3)nc(N)c2cc1OC (stereo not shown) [Doxazosin] | 48.0 ± 5.5 | 92.1 ± 1.0 | 26.7 ± 10.3 | 45.8 ± 14.0 | – | – | – | – | – | –
7 | CCOc1ccccc1OCCN[C@H](C)Cc1ccc(OC)c(S(N)(=O)=O)c1 [Tamsulosin] | – | 107.0 ± 3.1 | 14.9 ± 4.8 | 65.7 ± 2.9 | – | – | – | – | – | –
8 | CCC(=O)C(CC(C)N(C)C)(c1ccccc1)c1ccccc1 (stereo not shown) [Methadone] | – | 99.3 ± 0.3 | 8.9 ± 4.4 | 68.7 ± 3.8 | – | – | – | – | – | –
9 | COc1nc(C)nc(Cl)c1N=C1NCCN1 [Moxonidine] | – | – | – | – | – | – | 58.1 ± 14.5 | 86.1 ± 2.9 | 16.3 ± 6.5 | 23.1 ± 7.1
10 | NC(=O)C1(N2CCCCC2)CCN(CCCC(=O)c2ccc(F)cc2)CC1 [Pipamperone] | 33.9 ± 6.0 | 78.1 ± 2.2 | 12.0 ± 4.5 | 33.1 ± 3.4 | – | – | – | – | – | –
11 | CCN(CC)CCNC(=O)c1cc(Cl)c(N)cc1OC [Metoclopramide] | 74.7 ± 8.5 | 93.9 ± 0.6 | 24.5 ± 2.9 | 66.6 ± 8.4 | – | – | – | – | – | –
12 | N[C@@H](Cc1cc(I)c(Oc2cc(I)c(O)c(I)c2)c(I)c1)C(=O)O [Levothyroxine] | – | – | – | – | – | – | 0.8 ± 9.6 | 14.3 ± 15.2 | 3.6 ± 4.1 | -3.3 ± 10.3
